Values after ≈ are worked out from the molar mass of the structure shown. Where two headings read alike, the source gives them in different places. One block for each compound: values may come before it.
Columns and labels:
[1] = test system: Trypanosoma brucei rhodesiense (STIB 900 clone); experiment: Drug sensitivity assay (Alamar Blue, 72 h) against bloodstream form trypomastigotes in vitro; type: cell-based
Method: Bloodstream form trypomastigotes of the strains (a) and (c) are maintained in Minimal Essential Medium (MEM) with Earle's salts supplemented according to Baltz et al. (EMBO J. 4, 1273-1277, 1985) with 25 mM N-2-hydroxyethylpiperazine-N′-2-ethane-sulphonic acid (HEPES), 1 g/l additional glucose, 1% MEM non-essential amino acids (100×), 0.2 mM 2-mercaptoethanol, 2 mM sodium pyruvate, 0.1 mM hypoxanthine and 15% heat-inactivated horse serum.
All cultures and assays are conducted at 37° C. under an atmosphere of 5% CO2 in air.
Stock drug solutions are prepared in 100% dimethylsulphoxide (DMSO) (unless otherwise recommended by the supplier) at 10 mg/ml, and heated or sonicated if necessary to dissolve the sample. The stocks are kept at −20° C. For the assays, the compound is further diluted to the appropriate concentration using complete medium.
Assays are performed in 96-well microtiter plates, each well containing 100 μl of culture medium with 8×10^3 bloodstream forms with or without a serial drug dilution. The highest concentration of the test compounds is 90 μg/ml. Seven 3-fold drug dilutions are used, covering a range from 90 μg/ml to 0.123 μg/ml. Each drug is tested in duplicate. Active compounds are tested twice for confirmation. The final result is the mean of the four individual IC50 values. After 72 hrs of incubation, the plates are inspected under an inverted microscope to assure growth of the controls and sterile conditions.
Ten microliters of Alamar Blue (12.5 mg resazurin dissolved in 100 ml distilled water) are then added to each well and the plates are incubated for another 2 hours. The plates are read with a Spectramax Gemini XS microplate fluorometer (Molecular Devices Cooperation, Sunnyvale, Calif., USA) using an excitation wave length of 536 nm and an emission wave length of 588 nm. IC50 values are determined using the microplate reader software Softmax Pro (Molecular Devices Cooperation, Sunnyvale, Calif., USA).

[2] = test system: Trypanosoma brucei rhodesiense (STIB 900 clone); experiment: Sleeping sickness acute mouse model, T. b. rhodesiense STIB900; type: in vivo, mice (NMRI)
Method: Sleeping Sickness: Acute Model—Trypanosome b. rhodesiense STIB900 Parasite and Animal Strains Trypanosoma brucei rhodesiense STIB900 is used for this model. Female mice (NMRI), weighing 20-25 g, are maintained at 22° C. and 70% relative humidity.
(§1) Standard drugs as positive controls are Melarsoprol (Arsobal®, Specia, France) and Diminazene aceturate (Berenil®, Hoechst, Germany). Stock solutions of all test items were prepared in DMSO.

[3] = test system: Trypanosoma brucei brucei GVR 35; experiment: Sleeping sickness in vivo chronic CNS mouse model, T. b. brucei GVR 35; set-up: species or system mice (NMRI); settings: 40 mg/kg single i.p. dose on day +21
Method: Sleeping Sickness: In Vivo Chronic CNS Model—Trypanosoma b. brucei GVR 35 Parasite and Animal Strains Trypanosoma brucei brucei GVR 35 which leads to a CNS infection by day 21 post-infection (Jennings and Gray, Contrib. Microbiol. Immunol. 7, 147-54, 1983) is used for this model.
Female mice (NMRI), weighing 20-25 g, are maintained at 22° C. and 70% relative humidity.
Infection: The bloodstream forms are from a stock of cryopreserved stabilates containing 10% glycerol. The stabilate is suspended in PSG (phosphate-saline-glucose) 6:4 (Lanham & Godfrey, Exp. Parasitol. 28, 521-534, 1970) to obtain a trypanosome concentration of 8×10^4/ml. Each mouse is intraperitoneally injected with 0.25 ml inoculum (equivalent to 2×10^4 trypanosomes) on day 0.
Experimental groups and control groups each consist of 5 mice.
Evaluation endpoint: On day +28 and then twice a week until day +50 parasitaemia of all animals is checked by tail blood examination and recorded based on a subjective scale ranging from (+)=1 trypanosome/20 fields to +++=>100 trypanosomes/field with a 20× objective. After day +50 the mice are checked only once per week until day +180. For mice dying before day +180 the day of death is recorded. At day +180, surviving and aparasitaemic mice are considered cured and then euthanized. […]

[4] = patients treated for African trypanomiasis; cited from earlier work
[5] = test system: Trypanosoma brucei brucei STIB795; experiment: Sleeping sickness acute mouse model, T. b. brucei STIB795; type: in vivo, mice (NMRI); settings: ip injection, four consecutive days, daily doses of 50 mg/kg; T. b. brucei STIB795 infected mice
Method: Trypanosoma brucei brucei STIB795 is used for this model. Female mice (NMRI), weighing 20-25 g, are maintained at 22° C. and 70% relative humidity.
as §1

[6] = T. b. rhodesiense STIB 900, in vitro, 72 h incubation, Alamar Blue, read-out: IC50
[7] = 4 × 20 mg/kg p.o., determined on day 18

SMILES: O=NN(CCCl)C(=O)NCCCl [Carmustine]
IC50 [1, 6]: 2.18 µg/mL (≈ 10.2 µM)

SMILES: CN(C)/N=N/c1[nH]cnc1C(N)=O [Dacarbazine]
IC50 [1, 6]: 19.7 µg/mL (≈ 108 µM)
MSD (mean survival days) [2, 7]: 16 days
MSD (mean survival days) ([2]; 4 × 50 mg/kg p.o., determined on day 18): >18 days

SMILES: N=C(N)c1ccc(/N=N/Nc2ccc(C(=N)N)cc2)cc1 [Diminazene diaceturate]
course of parasitaemia and death (negative control) [3]: all mice clear parasitaemia but relapse before day +40 and die between day +50 and day +60

IC50 [1, 6]: 0.006 µg/mL (≈ 0.00743 µM)
SMILES: CC(=O)O[C@@]12CO[C@@H]1C[C@H](O)[C@@]1(C)C(=O)[C@H](O)C3=C(C)[C@@H](OC(=O)[C@H](O)[C@@H](NC(=O)OC(C)(C)C)c4ccccc4)C[C@@](O)([C@@H](OC(=O)c4ccccc4)[C@H]21)C3(C)C [Docetaxel]

IC50 [1, 6]: 0.015 µg/mL (≈ 0.0276 µM)
SMILES: COc1cccc2c1C(=O)c1c(O)c3c(c(O)c1C2=O)C[C@@](O)(C(=O)CO)C[C@@H]3O[C@H]1C[C@H](N)[C@H](O)[C@H](C)O1 [Doxorubicin]

SMILES: C[C@]12CC[C@@H]3c4ccc(OC(=O)N(CCCl)CCCl)cc4CC[C@H]3[C@@H]1CC[C@@H]2O [Estramustine]
IC50 ([1]; 72 h): 41.5 µg/mL (≈ 94.2 µM)

SMILES: Nc1nc(N)nc(Nc2ccc([As]3SCC(CO)S3)cc2)n1 (stereo not drawn) [Melarsoprol]
often fatal reactive encephalopathy, share of treated patients [4]: up to 10%

IC50 [1, 6]: 0.01 µg/mL (≈ 0.0117 µM)
SMILES: CC(=O)O[C@H]1C(=O)[C@@]2(C)[C@H]([C@H](OC(=O)c3ccccc3)[C@]3(O)C[C@H](OC(=O)[C@H](O)[C@@H](NC(=O)c4ccccc4)c4ccccc4)C(C)=C1C3(C)C)[C@]1(OC(C)=O)CO[C@@H]1C[C@@H]2O [Paclitaxel]

SMILES: Cn1nnc2c(C(N)=O)ncn2c1=O [Temozolomide]
IC50 [1, 6]: 27.7 µg/mL (≈ 143 µM)
cure rate [5]: 100%
MSD (mean survival days) [2, 7]: >18 days
Cured/Infected ([2]; 4 × 50 mg/kg i.p.): 3/4
MSD (mean survival days) ([2]; 4 × 50 mg/kg i.p.): >51.5 days
Cured/Infected ([2]; 4 × 50 mg/kg p.o.): 4/4
MSD (mean survival days) ([2]; 4 × 50 mg/kg p.o.): >60 days

IC50 [1, 6]: 0.13 µg/mL (≈ 0.16 µM)
SMILES: CC[C@]1(O)C[C@@H]2CN(CCc3c([nH]c4ccccc34)[C@@](C(=O)OC)(c3cc4c(cc3OC)N(C)[C@H]3[C@@](O)(C(=O)OC)[C@H](OC(C)=O)[C@]5(CC)C=CCN6CC[C@]43[C@@H]65)C2)C1 [Vinblastine]

From patent US20110118199A1, “USE OF CNS PENETRATING ANTICANCER COMPOUNDS FOR THE TREATMENT OF PROTOZOAL DISEASES” (priority 2006, published 2011)
